These results are taken from US9211350B2, “Compound with amyloid affinity” (priority 2011, dated 2015).

One data set deals with amyloid aggregates. The data set is described as follows: In vitro binding test with gray matter and white matter homogenate of brain of AD patients. On the set-up: species or system human. The settings on record: for Radioactive amount attached to brain tissue of AD patients (%), Gray matter: brain gray matter homogenate of AD patients (amyloid deposition); for Radioactive amount attached to brain tissue of AD patients (%), Gray matter / Radioactive amount attached to brain tissue of AD patients (%), White matter: 100 μg protein/mL, 3 hours, 22° C., relative to added radioactivity; for Radioactive amount attached to brain tissue of AD patients (%), White matter: brain white matter homogenate of AD patients (no amyloid); for Binding property to amyloid deposited in the brain (in words): gray matter versus white matter homogenate of AD patients. The method, then: Binding properties to amyloid aggregates of Compound 1, Compound 3, Compound 4, Compound 5 and [^123I]-IMPY were evaluated by the following in vitro binding test.
The assay was conducted using a gray matter homogenate of brain of AD patients and a white matter homogenate of brain of AD patients, which were prepared from a brain tissue (Frontal lobe) of AD patients commercially available from Analytical Biological Services Inc. (United States).
To each well of a 96-well microplate, 150 μL of a 0.1% BSA-containing 5 mmol/L phosphate buffer saline solution and 50 μL of a sample solution prepared above were added. Two wells were afforded to each sample solution. Of the two wells in which each sample solution was added, one received 50 μL of the brain grey matter homogenate of AD patients, and the other received 50 μL of the brain white matter homogenate of AD patients (final concentration: 100 μg protein/mL), so that the reaction was initiated. After the reaction solution was shaken for 3 hours (22° C., 400 rpm), a glass fiber filter (Multiscreen HTS FB, manufactured by Millipore) was used to filter the reaction solution. The filtrated filter was washed with a 0.1% BSA-containing 5 mmol/L phosphate buffer saline solution (200 μL, 3 times), and then radioactivity remained in the filter was measured with an Autowell Gammma system (type: ARC-7001, manufactured by Aloka). The ratio (%) of the radioactivity attached to the brain grey matter homogenate of AD patients or the brain white matter homogenate of AD patients relative to the added-radioactivity was calculated from the resulting count. Meanwhile, the above was repeated 3 times.

Data set [1] can be described thus: Measurement of partition coefficient based on the octanol extraction method. The data set is classed as physicochemical. Particulars: 1-octanol/water; average of 200 μL, 400 μL and 800 μL samples. Here is the method: Partition coefficients based on the octanol extraction method (hereinafter referred to as log Poctanol) were measured, which are generally known as an indicator of permeability of compounds through the blood-brain barrier (hereinafter referred to as BBB).
Compound 1, Compound 2, Compound 3 and Compound 4 were adjusted to about 1 MBq/mL respectively using a water saturated 1-octanol solution to obtain sample solutions. Each sample solution in an amount of 30 μL was added to three microtubes. The three microtubes to which each sample solution was added were supplemented with both water saturated 1-octanol and 1-octanol saturated water so as to make the volume to be 200 μL, 400 μL or 800 μL, respectively (referred to as 200 μL sample, 400 μL sample and 800 μL sample, respectively). Each microtube was subjected to stirring, and then was shaken for 5 minutes (20 to 25±2° C., 20 rpm/min). Next, the mixture in each microtube was centrifuged (23° C., 3000 g×20 min.) with a centrifuge (type: T2-MC, manufactured by BECKMAN), and then 50 μL each of the octanol layer and the water layer was obtained, and subjected to measurement of radioactivity with an Autowell Gamma system (Type: ARC-7001, manufactured by Aloka). Using the obtained count, log Poctanol was calculated in accordance with the following equation (1). Meanwhile, the value of log Poctanol was an average value of the values which were respectively calculated for the 200 μL sample, the 400 μL sample and the 800 μL sample.

Data set [2] is described as follows: Measurement of transferability into brain and clearance (radioactive accumulation in brain). Particulars: rats; for Radioactive accumulation per unit weight (% ID/g) in brain, After 2 min. / Radioactive accumulation per unit weight (% ID/g) in brain, After 60 min.: intravenous injection (tail vein); for Radioactive accumulation per unit weight (% ID/g) in brain, After 2 min.: 2 minutes after the injection; for Radioactive accumulation per unit weight (% ID/g) in brain, After 60 min.: 60 minutes after the injection; for Transferability to brain and clearance from brain (in words): intravenous injection, 2 and 60 minutes.
Protocol: Using Compound 1, Compound 2, Compound 3, Compound 4 and Compound 5, radioactive accumulation in brain of male Wistar rats (8-week old) was measured.
A solution in which Compound 1, Compound 2, Compound 4 and Compound 5 were respectively dissolved in a physiological saline solution containing 50 mmol/L of L-cysteine hydrochloride was prepared, to obtain a sample solution (radioactive concentration: all 37 MBq/mL). A solution in which Compound 3 was dissolved in a physiological saline solution containing 10% ethanol and 50 mmol/L of L-cysteine hydrochloride was prepared, to obtain a sample solution (radioactive concentration: 37 MBq/mL). The sample solution was injected under non-anesthesia into the tail vein of male Wistar rats (8-week old) (dosage: 0.2 mL, dosed radioactivity: 7.4 MBq equivalent). The rats were sacrificed by decapitating under non-anesthesia to sample bloods and brains 2 and 60 minutes after the injection. Brains were subjected to measurement of mass of brains and further subjected to measurement of radioactivity (hereinafter referred to as A in this Example) with a single channel analyzer (detector type: SP-20 manufactured by OHYO KOKEN KOGYO Co., Ltd.). Further, the radioactivity level of the rest of the whole body including blood was measured in the same manner as above (hereinafter referred to as B in this Example). Using these measurement results, the amount of radioactive accumulation per unit weight of brain (% ID/g) at the respective time points after the dissection were calculated in accordance with the following formula (2).
The same procedure as the above was carried out to calculate the amount of radioactive accumulation per unit weight of brain (% ID/g) at the respective time points after the dissection.
Meanwhile, in this Example, three animals were used for the experiment at the respective time points.

The test system of data set [3] is amyloid in brain of AD patients. The data set is described as follows: Autoradiography of brain slice of AD patients. The data set is classed as binding, human. Particulars: 5 μm brain slice of AD patients, 10 kBq/mL, compared with immunostaining by anti-amyloid antibody. Here is the method:
The following experiment was carried out in order to examine whether the compound of the present invention can image amyloid in brain of AD patients.
• (1) A 5 μm thick brain slice of AD patients was prepared from a brain tissue of AD patients available from Analytical Biological Services Inc. (United States). • (2) The brain slice prepared for each test substance was immersed in PBS 3 times in total: 15 minutes, 5 minutes and 5 minutes in this order. Next, it was immersed in a 1% BSA-containing PBS for 30 minutes to conduct hydrophilization. As the test substance, a 1% BSA-containing PBS containing each of Compound 1, Compound 2, Compound 3, Compound 4, Compound 5 and [^123I]-IMPY (radioactive concentration: 10 kBq/mL) was prepared and used. The above hydrophilized brain slice was immersed at room temperature in each of the test substance solutions. Then, it was immersed in a 1% BSA-containing PBS for 5 minutes, next in a PBS for 5 minutes and further in a PBS for 5 minutes to wash the brain slices. The washed brain slice was sufficiently dried, and then exposed to an imaging plate for 16 hours, and then autoradiogram image analysis was carried out by use of a Bio-imaging Analyzer (type: BAS-2500; manufactured by FUJIFILM Corporation) (FIG. 7, FIG. 8, FIG. 9, FIG. 10, FIG. 11, FIG. 12). • (3) Separately, immunostaining at a site of amyloid deposition with an anti-amyloid antibody was carried out using adjacent slices which were subjected to hydrophilization in accordance with the same procedures as the above. Anti-Human Amyloidβ(N) (82E1) Mouse IgG MoAb (Immuno-Biological Laboratories Co., Ltd.) was used as the anti-amyloid antibody, and Anti-Mouse IgG (H+L) Goat IgG Fab′-HRP (Immuno-Biological Laboratories Co., Ltd.) was used as a secondary antibody. The site of amyloid deposition was detected by applying the DAB+(3,3′-diaminobenzidinetetrahydrochloride) substrate kit (Dako) to HRP attached to the secondary antibody (FIG. 13). Results

For the compound `[123I]c1ccc2nc(-c3ccc(-n4ccnn4)nc3)cn2c1` [Compound 1, [^123I]-6-iodo-2-[2-(1H-1,2,3-triazole-1-yl)pyridine-5-yl]imidazo[1,2-a]pyridine], in the data set with amyloid aggregates, the “Radioactive amount attached to brain tissue of AD patients (%), Gray matter” value (“Radioactive amount attached … (%), Gray matter” for short) is listed as 2.59%; the “Radioactive amount attached to brain tissue of AD patients (%), White matter” value (“Radioactive amount attached … (%), White matter” for short) was 0.48%; the “Binding property to amyloid deposited in the brain (in words)” value (from here on “Binding property to amyloid deposited”) was “have a binding property to amyloid deposited in the brain”. In data set [1], this compound showed a logPoctanol value of 2.10. In addition, in data set [2], the “Radioactive accumulation per unit weight (% ID/g) in brain, After 2 min.” value was 1.226 % ID/g; the “Radioactive accumulation per unit weight (% ID/g) in brain, After 60 min.” value is recorded as 0.028 % ID/g; the “Transferability to brain and clearance from brain (in words)” value (“Transferability to brain and clearance” for short) is “excellent transferability to brain and rapid clearance from brain”. Moreover, in data set [3], the “Binding to the site of amyloid deposition on autoradiogram (in words)” value (“Binding to the site” for short) is “binding of the compounds to the site of amyloid deposition confirmed by immunostaining was also be confirmed”.
Regarding `CN(C)c1ccc(-c2cn3cc(I)ccc3n2)cc1` [[^123I]-IMPY, 6-iodo-2-[4′-(N,N-dimethylamino)phenyl]imidazo[1,2-a]pyridine, reference compound], in the data set on amyloid aggregates, the “Radioactive amount attached … (%), Gray matter” value is on record as 1.97% and the “Radioactive amount attached … (%), White matter” value is 0.77%. Also, in data set [2], the “Radioactive accumulation per unit weight (% ID/g) in brain, After 2 min.” value was found to be 1.644 % ID/g and the “Radioactive accumulation per unit weight (% ID/g) in brain, After 60 min.” value is on record as 0.085 % ID/g. Besides, in data set [3], the “Binding to the site” value is on record as “binding of the compounds to the site of amyloid deposition confirmed by immunostaining was also be confirmed”.
Turning to “[^123I]-6-iodo-2-[2-(1H-1,2,4-triazole-1-yl)pyridine-5-yl]imidazo[1,2-a]pyridine [Compound 4]”, in the data set with amyloid aggregates, the “Radioactive amount attached … (%), Gray matter” value turned out to be 1.13%; the “Radioactive amount attached … (%), White matter” value is recorded as 0.17%; the “Binding property to amyloid deposited” value is reported as “have a binding property to amyloid deposited in the brain”. This compound returned a logPoctanol value in data set [1] of 2.23. In data set [2], the “Radioactive accumulation per unit weight (% ID/g) in brain, After 2 min.” value is listed as 1.287 % ID/g; the “Radioactive accumulation per unit weight (% ID/g) in brain, After 60 min.” value was 0.056 % ID/g; the “Transferability to brain and clearance” value was “excellent transferability to brain and rapid clearance from brain”. Also, in data set [3], the “Binding to the site” value is “binding of the compounds to the site of amyloid deposition confirmed by immunostaining was also be confirmed”.
For “[^123I]-6-iodo-2-[2-(1H-imidazole-1-yl)pyridine-5-yl]imidazo[1,2-a]pyridine [Compound 3]”, in the data set with amyloid aggregates, the “Radioactive amount attached … (%), Gray matter” value stood at 2.00%; the “Radioactive amount attached … (%), White matter” value was 0.83%; the “Binding property to amyloid deposited” value is on record as “have a binding property to amyloid deposited in the brain”. This compound also came in with a logPoctanol value in data set [1] of 1.91. Besides, in data set [2], the “Radioactive accumulation per unit weight (% ID/g) in brain, After 2 min.” value came out at 1.186 % ID/g; the “Radioactive accumulation per unit weight (% ID/g) in brain, After 60 min.” value stood at 0.246 % ID/g; the “Transferability to brain and clearance” value is “excellent transferability to brain and rapid clearance from brain”. In data set [3], the “Binding to the site” value was “binding of the compounds to the site of amyloid deposition confirmed by immunostaining was also be confirmed”.
Consider “[^123I]-6-iodo-2-[2-(2H-1,2,3-triazole-2-yl)pyridine-5-yl]imidazo[1,2-a]pyridine [Compound 2]”, for which, in data set [1], the logPoctanol value amounted to 2.05. Also, in data set [2], the “Radioactive accumulation per unit weight (% ID/g) in brain, After 2 min.” value is 1.160 % ID/g; the “Radioactive accumulation per unit weight (% ID/g) in brain, After 60 min.” value amounted to 0.027 % ID/g; the “Transferability to brain and clearance” value is “excellent transferability to brain and rapid clearance from brain”. In addition, the “Binding to the site” value in data set [3] is recorded as “binding of the compounds to the site of amyloid deposition confirmed by immunostaining was also be confirmed”.
On to “[^123I]-6-iodo-2-[2-(pyrazole-1-yl)pyridine-5-yl]imidazo[1,2-a]pyridine [Compound 5]”, for which, in the data set on amyloid aggregates, the “Radioactive amount attached … (%), Gray matter” value stood at 2.41%; the “Radioactive amount attached … (%), White matter” value came out at 0.77%; the “Binding property to amyloid deposited” value is given as “have a binding property to amyloid deposited in the brain”. In data set [2], the “Radioactive accumulation per unit weight (% ID/g) in brain, After 2 min.” value turned out to be 1.500 % ID/g; the “Radioactive accumulation per unit weight (% ID/g) in brain, After 60 min.” value was 0.079 % ID/g; the “Transferability to brain and clearance” value was “excellent transferability to brain and rapid clearance from brain”. In data set [3], the “Binding to the site” value is given as “binding of the compounds to the site of amyloid deposition confirmed by immunostaining was also be confirmed”.
